Measurements published in ChEMBL document CHEMBL1909046, “DrugMatrix in vitro pharmacology data”.

How the values were obtained:
[1] = target: T1, Alpha-2C adrenergic receptor (Homo sapiens, UniProt P18825); assay: DRUGMATRIX: Adrenergic Alpha-2C radioligand binding (ligand: [3H] MK-912); type: cell membranes, Sf9, Membrane
T1 sequence (P18825 whole entry): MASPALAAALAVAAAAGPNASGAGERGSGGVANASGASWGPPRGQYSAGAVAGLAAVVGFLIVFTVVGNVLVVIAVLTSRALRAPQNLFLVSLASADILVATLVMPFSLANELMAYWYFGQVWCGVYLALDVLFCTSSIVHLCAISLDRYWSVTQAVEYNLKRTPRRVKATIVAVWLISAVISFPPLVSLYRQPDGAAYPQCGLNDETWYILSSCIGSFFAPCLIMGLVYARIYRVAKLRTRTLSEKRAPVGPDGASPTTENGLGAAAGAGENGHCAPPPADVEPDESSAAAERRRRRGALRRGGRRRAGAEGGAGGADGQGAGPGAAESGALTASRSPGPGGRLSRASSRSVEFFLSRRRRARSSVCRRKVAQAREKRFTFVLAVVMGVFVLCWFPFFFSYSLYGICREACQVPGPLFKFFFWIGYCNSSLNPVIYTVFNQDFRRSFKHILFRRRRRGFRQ

[2] = DRUGMATRIX: Atrial Natriuretic Factor (ANF) radioligand binding (ligand: [125I] ANF (rat)); type: cell membranes, Cavia porcellus, Dunkin-Hartley, Adrenal gland, Membrane; conditions: Not Active = under 50% inhibition at 10 µM
Substance-K receptor = target: T2, Substance-K receptor (Homo sapiens, UniProt P21452); type: cell membranes, CHO, Membrane; conditions: cho; note: in other assays of this panel Not Active means under 50% inhibition at 10 µM
T2 sequence (P21452 whole entry): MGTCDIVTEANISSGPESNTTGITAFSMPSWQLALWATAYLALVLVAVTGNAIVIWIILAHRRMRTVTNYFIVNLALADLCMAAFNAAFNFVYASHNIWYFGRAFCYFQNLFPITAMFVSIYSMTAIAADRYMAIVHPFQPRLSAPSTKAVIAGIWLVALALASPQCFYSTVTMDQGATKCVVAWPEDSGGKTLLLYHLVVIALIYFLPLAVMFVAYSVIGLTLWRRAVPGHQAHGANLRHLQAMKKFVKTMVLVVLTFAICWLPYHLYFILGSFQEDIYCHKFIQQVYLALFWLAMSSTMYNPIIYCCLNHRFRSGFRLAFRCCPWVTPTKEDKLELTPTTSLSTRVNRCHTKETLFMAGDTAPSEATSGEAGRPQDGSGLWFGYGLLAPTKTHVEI

[3] = DRUGMATRIX: Leukotriene, BLT (LTB4) radioligand binding (ligand: [3H]LTB4); type: cell membranes, Membrane; conditions: u-937; Not Active = under 50% inhibition at 10 µM
Progesterone receptor = target: T3, Progesterone receptor (Bos taurus, UniProt Q690N0); assay: DRUGMATRIX: Progesterone radioligand binding (ligand: [3H] R-5020); type: tissue-based, Uterus; conditions: Not Active = under 50% inhibition at 10 µM
T3 sequence (Q690N0 whole entry): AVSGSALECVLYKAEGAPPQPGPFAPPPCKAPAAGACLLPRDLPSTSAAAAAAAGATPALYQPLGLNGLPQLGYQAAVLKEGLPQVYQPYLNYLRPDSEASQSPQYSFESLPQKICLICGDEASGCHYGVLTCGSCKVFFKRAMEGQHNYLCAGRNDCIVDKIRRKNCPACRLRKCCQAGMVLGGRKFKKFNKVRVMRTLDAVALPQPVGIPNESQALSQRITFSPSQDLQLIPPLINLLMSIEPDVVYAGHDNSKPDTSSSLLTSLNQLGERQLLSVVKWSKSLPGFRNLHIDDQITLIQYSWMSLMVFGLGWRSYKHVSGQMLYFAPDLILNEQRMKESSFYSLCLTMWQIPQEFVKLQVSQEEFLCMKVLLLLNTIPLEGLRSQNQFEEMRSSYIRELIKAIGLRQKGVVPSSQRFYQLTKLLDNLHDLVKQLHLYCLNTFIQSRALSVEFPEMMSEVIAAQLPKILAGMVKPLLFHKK

Cytochrome P450 2A6 = target: T4, Cytochrome P450 2A6 (Homo sapiens, UniProt P11509); conditions: bti-tn-5b1-4; note: in other assays of this panel Not Active means under 50% inhibition at 10 µM
T4 sequence (P11509 whole entry): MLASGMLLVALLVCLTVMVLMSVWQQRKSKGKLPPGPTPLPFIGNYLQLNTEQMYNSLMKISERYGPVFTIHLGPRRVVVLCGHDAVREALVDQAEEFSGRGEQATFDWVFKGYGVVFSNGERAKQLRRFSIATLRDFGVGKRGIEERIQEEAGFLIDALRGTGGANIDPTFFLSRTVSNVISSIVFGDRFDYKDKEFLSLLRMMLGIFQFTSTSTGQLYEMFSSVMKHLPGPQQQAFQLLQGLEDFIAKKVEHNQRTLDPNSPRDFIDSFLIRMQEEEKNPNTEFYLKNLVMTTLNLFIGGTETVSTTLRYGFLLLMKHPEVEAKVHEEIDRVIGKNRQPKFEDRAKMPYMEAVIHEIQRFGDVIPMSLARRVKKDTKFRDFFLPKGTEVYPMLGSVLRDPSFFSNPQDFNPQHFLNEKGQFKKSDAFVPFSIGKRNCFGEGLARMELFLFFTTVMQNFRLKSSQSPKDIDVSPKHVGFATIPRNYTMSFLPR

## Nc1cc(N2CCCCC2)nc(N)[n+]1[O-] [MINOXIDIL]
[1]; sf9
  IC50: Not Active
[2]
  IC50: Not Active
  Ki: Not Active
Substance-K receptor
  IC50: Not Active
[3]
  IC50: Not Active
  Ki: Not Active
Progesterone receptor
  IC50: Not Active
Cytochrome P450 2A6
  IC50: Not Active
  Ki: Not Active

## CC(C)NCC(O)c1ccc(NS(C)(=O)=O)cc1 (stereo not drawn) [SOTALOL]
[1]; sf9
  IC50: Not Active
[2]
  IC50: Not Active
  Ki: Not Active
Substance-K receptor
  IC50: Not Active
[3]
  IC50: Not Active
  Ki: Not Active
Progesterone receptor
  IC50: Not Active
Cytochrome P450 2A6
  IC50: Not Active
  Ki: Not Active

## CS(=O)(=O)c1ccc([C@@H](O)[C@@H](CO)NC(=O)C(Cl)Cl)cc1 [THIAMPHENICOL]
[1]; sf9
  IC50: Not Active
[2]
  IC50: Not Active
  Ki: Not Active
Substance-K receptor
  IC50: Not Active
[3]
  IC50: Not Active
  Ki: Not Active
Progesterone receptor
  IC50: Not Active
Cytochrome P450 2A6
  IC50: Not Active
  Ki: Not Active

## CCN1CCC[C@H]1CNC(=O)c1cc(S(N)(=O)=O)ccc1OC [LEVOSULPIRIDE]
[1]; sf9
  IC50: Not Active
[2]
  IC50: Not Active
  Ki: Not Active
Substance-K receptor
  IC50: Not Active
[3]
  IC50: Not Active
  Ki: Not Active
Progesterone receptor
  IC50: Not Active
Cytochrome P450 2A6
  IC50: Not Active
  Ki: Not Active

## CCN(CC)CC(=O)Nc1c(C)cccc1C [LIDOCAINE]
[1]; sf9
  IC50: Not Active
[2]
  IC50: Not Active
  Ki: Not Active
Substance-K receptor
  IC50: Not Active
[3]
  IC50: Not Active
  Ki: Not Active
Progesterone receptor
  IC50: Not Active
Cytochrome P450 2A6
  IC50: Not Active
  Ki: Not Active

## CC(c1cc2ccccc2s1)N(O)C(N)=O (stereo not drawn) [ZILEUTON]
[1]; sf9
  IC50: Not Active
[2]
  IC50: Not Active
  Ki: Not Active
Substance-K receptor
  IC50: Not Active
[3]
  IC50: Not Active
  Ki: Not Active
Progesterone receptor
  IC50: Not Active
Cytochrome P450 2A6
  IC50: Not Active
  Ki: Not Active

## CCCCNc1ccc(C(=O)OCCN(C)C)cc1 [TETRACAINE]
[1]; sf9
  IC50: Not Active
[2]
  IC50: Not Active
  Ki: Not Active
Substance-K receptor
  IC50: Not Active
[3]
  IC50: Not Active
  Ki: Not Active
Progesterone receptor
  IC50: Not Active
Cytochrome P450 2A6
  IC50: Not Active
  Ki: Not Active

## CC[C@@H](C(=O)[C@@H](C)[C@@H](O)[C@H](C)[C@@H]1O[C@@H]([C@@H](CC)C(=O)O)CC[C@@H]1C)[C@H]1O[C@]2(C=C[C@@H](O)[C@]3(CC[C@@](C)([C@H]4CC[C@](O)(CC)[C@H](C)O4)O3)O2)[C@H](C)C[C@@H]1C [SALINOMYCIN]
[1]; sf9
  IC50: Not Active
[2]
  IC50: Not Active
  Ki: Not Active
Substance-K receptor
  IC50: Not Active
[3]
  IC50: Not Active
  Ki: Not Active
Progesterone receptor
  IC50: Not Active
Cytochrome P450 2A6
  IC50: Not Active
  Ki: Not Active

## CO[C@@H]1[C@@H](OC)[C@H](C)[C@@](O)(CC(=O)O)O[C@H]1[C@H](C)[C@H]1O[C@@]2(CC[C@@](C)([C@H]3CC[C@@](C)([C@@H]4O[C@@H]([C@H]5O[C@](C)(O)[C@H](C)C[C@@H]5C)C[C@@H]4O[C@@H]4C[C@H](OC)[C@@H](OC)[C@H](C)O4)O3)O2)C[C@H](O)[C@H]1C [MADURAMICIN ACID]
[1]; read-out: IC50
  IC50: 1610 nM
[1]; read-out: Ki
  Ki: 234 nM
[2]
  IC50: Not Active
  Ki: Not Active
Substance-K receptor
  IC50: Not Active
[3]
  IC50: Not Active
  Ki: Not Active
Progesterone receptor
  IC50: Not Active
Cytochrome P450 2A6
  IC50: Not Active
  Ki: Not Active

## CC(C)Cc1ccc([C@@H](C)C(=O)O)cc1 [(R)-IBUPROPHEN]
[1]; sf9
  IC50: Not Active
[2]
  IC50: Not Active
  Ki: Not Active
Substance-K receptor
  IC50: Not Active
[3]
  IC50: Not Active
  Ki: Not Active
Progesterone receptor
  IC50: Not Active
Cytochrome P450 2A6
  IC50: Not Active
  Ki: Not Active

## NC(=O)N1C(=O)/C(=C(\O)c2cccs2)c2cc(Cl)ccc21 [TENIDAP]
[1]; sf9
  IC50: Not Active
[2]
  IC50: Not Active
  Ki: Not Active
Substance-K receptor
  IC50: Not Active
[3]
  IC50: Not Active
  Ki: Not Active
Progesterone receptor
  IC50: Not Active
Cytochrome P450 2A6
  IC50: Not Active
  Ki: Not Active

## O=C1C(CC[S+]([O-])c2ccccc2)C(=O)N(c2ccccc2)N1c1ccccc1 (stereo not drawn) [SULFINPYRAZONE]
[1]; sf9
  IC50: Not Active
[2]
  IC50: Not Active
  Ki: Not Active
Substance-K receptor
  IC50: Not Active
[3]
  IC50: Not Active
  Ki: Not Active
Progesterone receptor
  IC50: Not Active
Cytochrome P450 2A6
  IC50: Not Active
  Ki: Not Active

## CO[C@H]1/C=C/O[C@@]2(C)Oc3c(C)c(O)c4c(O)c(c(/C=N/N5CCN(C6CCCC6)CC5)c(O)c4c3C2=O)NC(=O)/C(C)=C\C=C\[C@H](C)[C@H](O)[C@@H](C)[C@@H](O)[C@@H](C)[C@H](OC(C)=O)[C@@H]1C [RIFAPENTINE]
[1]; sf9
  IC50: Not Active
[2]
  IC50: Not Active
  Ki: Not Active
Substance-K receptor
  IC50: Not Active
[3]
  IC50: Not Active
  Ki: Not Active
Progesterone receptor
  IC50: Not Active
Cytochrome P450 2A6
  IC50: Not Active
  Ki: Not Active

## Cn1c(=O)c2nc[nH]c2n(C)c1=O.O [THEOPHYLLINE]
[1]; sf9
  IC50: Not Active
[2]
  IC50: Not Active
  Ki: Not Active
Substance-K receptor
  IC50: Not Active
[3]
  IC50: Not Active
  Ki: Not Active
Progesterone receptor
  IC50: Not Active
Cytochrome P450 2A6
  IC50: Not Active
  Ki: Not Active

## CCCCOc1cc(CC2CNC(=O)N2)ccc1OC (stereo not drawn) [RO-201724]
[1]; sf9
  IC50: Not Active
[2]
  IC50: Not Active
  Ki: Not Active
Substance-K receptor
  IC50: Not Active
[3]
  IC50: Not Active
  Ki: Not Active
Progesterone receptor
  IC50: Not Active
Cytochrome P450 2A6
  IC50: Not Active
  Ki: Not Active

## N#Cc1ccc(C(c2ccc(C#N)cc2)n2cncn2)cc1 [LETROZOLE]
[1]; sf9
  IC50: Not Active
[2]
  IC50: Not Active
  Ki: Not Active
Substance-K receptor
  IC50: Not Active
[3]
  IC50: Not Active
  Ki: Not Active
Progesterone receptor
  IC50: Not Active
Cytochrome P450 2A6
  IC50: Not Active
  Ki: Not Active

## CN(C/C=C/C#CC(C)(C)C)Cc1cccc2ccccc12 [TERBINAFINE]
[1]; sf9
  IC50: Not Active
[2]
  IC50: Not Active
  Ki: Not Active
Substance-K receptor
  IC50: Not Active
[3]
  IC50: Not Active
  Ki: Not Active
Progesterone receptor
  IC50: Not Active
Cytochrome P450 2A6
  IC50: Not Active
  Ki: Not Active

## O=C1Nc2ccc(Cl)cc2C(c2ccccc2Cl)=NC1O (stereo not drawn) [LORAZEPAM]
[1]; sf9
  IC50: Not Active
[2]
  IC50: Not Active
  Ki: Not Active
Substance-K receptor
  IC50: Not Active
[3]
  IC50: Not Active
  Ki: Not Active
Progesterone receptor
  IC50: Not Active
Cytochrome P450 2A6
  IC50: Not Active
  Ki: Not Active
